# Experimental data taken from ChEMBL document CHEMBL1134351, “Synthesis of new cyclitol compounds that influence the activity of phosphatidylinositol 4-kinase isoform, PI4K230” (J Med Chem, 2001).
# Target: Phosphatidylinositol 4-kinase alpha (Bos taurus) (UniProt O02811)
# Experiment: Inactivation of the enzyme PI4K230 from bovine brain membranes
# Design: concentration or dose not given beside the values
# Phosphatidylinositol 4-kinase alpha (Bos taurus), sequence (O02811 whole entry): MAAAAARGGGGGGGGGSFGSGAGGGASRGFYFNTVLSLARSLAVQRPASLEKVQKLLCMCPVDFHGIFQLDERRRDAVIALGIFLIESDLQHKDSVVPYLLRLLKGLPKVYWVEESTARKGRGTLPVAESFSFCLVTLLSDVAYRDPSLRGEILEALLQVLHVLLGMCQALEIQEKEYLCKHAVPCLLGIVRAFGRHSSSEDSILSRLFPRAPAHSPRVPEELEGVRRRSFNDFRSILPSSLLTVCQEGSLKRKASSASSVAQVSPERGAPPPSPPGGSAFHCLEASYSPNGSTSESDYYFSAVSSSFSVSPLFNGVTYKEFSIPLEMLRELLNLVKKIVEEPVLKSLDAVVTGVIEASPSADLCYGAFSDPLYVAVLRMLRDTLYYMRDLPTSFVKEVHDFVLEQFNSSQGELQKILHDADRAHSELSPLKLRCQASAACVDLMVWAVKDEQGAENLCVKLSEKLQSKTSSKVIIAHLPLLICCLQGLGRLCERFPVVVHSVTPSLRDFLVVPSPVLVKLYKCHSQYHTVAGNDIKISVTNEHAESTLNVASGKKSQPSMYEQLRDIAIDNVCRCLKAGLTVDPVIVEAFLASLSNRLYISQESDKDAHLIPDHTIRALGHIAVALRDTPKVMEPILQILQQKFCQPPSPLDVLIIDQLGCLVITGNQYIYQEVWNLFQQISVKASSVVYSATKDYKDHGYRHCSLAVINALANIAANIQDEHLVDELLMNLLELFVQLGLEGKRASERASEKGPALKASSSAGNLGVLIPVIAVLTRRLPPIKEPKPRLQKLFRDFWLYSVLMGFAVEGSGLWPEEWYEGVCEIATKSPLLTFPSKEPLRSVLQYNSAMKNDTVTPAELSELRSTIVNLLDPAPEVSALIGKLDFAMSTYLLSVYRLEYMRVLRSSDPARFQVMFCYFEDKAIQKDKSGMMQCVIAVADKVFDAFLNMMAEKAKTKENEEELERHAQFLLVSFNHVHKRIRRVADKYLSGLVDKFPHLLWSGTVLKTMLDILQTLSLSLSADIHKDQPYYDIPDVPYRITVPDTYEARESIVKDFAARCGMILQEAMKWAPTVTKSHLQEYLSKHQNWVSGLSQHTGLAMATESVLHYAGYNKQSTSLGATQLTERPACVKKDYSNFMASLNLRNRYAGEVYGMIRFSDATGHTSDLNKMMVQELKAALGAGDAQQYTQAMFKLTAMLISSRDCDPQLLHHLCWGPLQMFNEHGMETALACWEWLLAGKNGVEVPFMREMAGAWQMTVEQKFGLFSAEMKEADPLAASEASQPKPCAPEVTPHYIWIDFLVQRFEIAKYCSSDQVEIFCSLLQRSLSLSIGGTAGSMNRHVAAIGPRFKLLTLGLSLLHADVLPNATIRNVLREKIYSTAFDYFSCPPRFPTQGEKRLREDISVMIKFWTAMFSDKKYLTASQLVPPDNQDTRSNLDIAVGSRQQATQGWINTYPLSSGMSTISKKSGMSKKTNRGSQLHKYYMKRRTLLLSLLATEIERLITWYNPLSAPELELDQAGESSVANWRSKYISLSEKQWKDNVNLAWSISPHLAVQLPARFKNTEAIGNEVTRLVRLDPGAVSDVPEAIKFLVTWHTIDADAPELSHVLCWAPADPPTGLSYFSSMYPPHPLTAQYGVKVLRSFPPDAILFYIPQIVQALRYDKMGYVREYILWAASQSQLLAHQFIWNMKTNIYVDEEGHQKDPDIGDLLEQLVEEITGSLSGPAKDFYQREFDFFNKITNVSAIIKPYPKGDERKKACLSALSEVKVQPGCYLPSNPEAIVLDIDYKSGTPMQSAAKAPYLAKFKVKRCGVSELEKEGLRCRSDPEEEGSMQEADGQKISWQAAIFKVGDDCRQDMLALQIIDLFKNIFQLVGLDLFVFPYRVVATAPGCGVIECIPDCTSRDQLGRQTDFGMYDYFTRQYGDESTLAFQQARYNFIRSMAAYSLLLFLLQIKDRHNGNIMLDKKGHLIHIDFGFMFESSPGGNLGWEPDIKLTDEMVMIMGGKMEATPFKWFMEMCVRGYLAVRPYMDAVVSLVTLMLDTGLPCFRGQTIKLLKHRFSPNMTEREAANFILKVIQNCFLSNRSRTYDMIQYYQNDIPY
row,SMILES,Remaining activity [%]
1,[N-]=[N+]=N[C@@H]1CC=CC(=O)[C@H]1OCc1ccccc1,85
2,COC(=O)/C=C1\C[C@H](O)C[C@@H](N=[N+]=[N-])[C@@H]1OCc1ccccc1,70
3,COC(=O)/C=C1\C[C@H](O)C[C@@H](OC(=O)c2ccccc2)[C@@H]1OC(=O)c1ccccc1,64
4,CC1(C)OC2CC(=O)C[C@@H](O)C2O1 (some centres undefined),80
5,CC(=O)O[C@@H]1C[C@@H](N=[N+]=[N-])[C@H](OC(=O)c2ccccc2)C2(C1)SCCS2,96
6,CC(=O)O[C@@H]1[C@@H](NC(=O)c2ccccc2)[C@@H](O)CC(=O)[C@H]1OC(C)=O,56
7,O=C1C[C@H](O)CC=C1OC(=O)c1ccccc1,51
8,O=C(O[C@@H]1C(=O)C=CC[C@H]1OC(=O)c1ccccc1)c1ccccc1,8
9,O=C(O[C@@H]1C(=O)C[C@H](O)C[C@H]1OC(=O)c1ccccc1)c1ccccc1,84
10,CC1(C)OC2C=CC(=O)CC2O1 (centres undefined),57
11,[N-]=[N+]=N[C@@H]1C[C@@H](O)CC2(SCCS2)[C@H]1OC(=O)c1ccccc1,96
12,CC(=O)O[C@@H]1CC(=O)[C@@H](OC(=O)c2ccccc2)[C@H](OC(=O)c2ccccc2)C1,20

# Further lines, results first:
row,Remaining activity [%],SMILES
1,85,[N-]=[N+]=N[C@@H]1C[C@@H](O)CC(=O)[C@H]1OCc1ccccc1
2,66,[N-]=[N+]=N[C@@H]1C[C@@H](O)C/C(=N\O)[C@H]1OC(=O)c1ccccc1
3,80,[N-]=[N+]=N[C@@H]1C[C@@H](O)CC(=O)[C@H]1OC(=O)c1ccccc1
4,82,CC(=O)O[C@@H]1CC(=O)[C@@H](OCc2ccccc2)[C@H](N=[N+]=[N-])C1
5,5,[N-]=[N+]=N[C@@H]1CC=CC(=O)[C@H]1OC(=O)c1ccccc1
6,10,CC(=O)O[C@H]1CC(=O)[C@@H](OC(=O)c2ccccc2)[C@H](N=[N+]=[N-])C1
7,63,COC(=O)/C=C1\C[C@H](O)C[C@@H](N=[N+]=[N-])[C@@H]1OC(=O)c1ccccc1
